Measurements taken from patent publication US9090600B2, “Fungicidal 4-substituted-3-{phenyl[(heterocyclylmethoxy)imino]methyl}-1,2,4-oxadizol-5(4H)-one derivatives” (BAYER INTELLECTUAL PROPERTY GMBH, priority 2011, dated 2015).
Like-named read-outs stand apart in the source and are kept apart here. Marks after values point to notes of the source that are not given here.

Tests used:
Phytophthora infestans [1] = assay type: in vivo; conditions: tomato, preventive spray, 100 ppm of active ingredient, evaluated 7 days after inoculation
Plasmopara viticola = test: Plasmopara test (grapevines)/preventive; assay type: in vivo; conditions: preventive spray, 10 ppm of active ingredient, evaluated 6 days after inoculation
Description: Solvent: 24.5 parts by weight of acetone • 24.5 parts by weight of dimethylacetamide
Emulsifier: 1 part by weight of alkylaryl polyglycol ether
To produce a suitable preparation of active compound, 1 part by weight of active compound is mixed with the stated amounts of solvent and emulsifier, and the concentrate is diluted with water to the desired concentration.
To test for preventive activity, young plants are sprayed with the preparation of active compound at the stated rate of application. After the spray coating has dried on, the plants are inoculated with an aqueous spore suspension of Plasmopara viticola and then remain for 1 day in an incubation cabinet at approximately 20° C. and a relative atmospheric humidity of 100%. The plant is subsequently placed for 4 days in a greenhouse at approximately 21° C. and a relative atmospheric humidity of approximately 90%. The plants are then misted and placed for 1 day in an incubation cabinet.
The test is evaluated 6 days after the inoculation. 0% means an efficacy which corresponds to that of the untreated control, while an efficacy of 100% means that no disease is observed.

Phytophthora infestans [2] = assay type: in vivo; conditions: tomato plants, spray, 500 ppm, grading 5 days after contamination
[3] = pH 2.7
Puccinia recondita = test: In vivo test on Puccinia recondita (brown rust); conditions: wheat plants, spray, 500 ppm, grading 10 days after contamination
Description: The active ingredients tested are prepared by homogenization in a mixture of acetone/tween/DMSO, then diluted with water to obtain the desired active material.
Wheat plants (Scipion variety) sown on 50/50 peat soil-pozzolana substrate in starter cups and grown at 22° C. (12 h)/20° C. (12 h), are treated at the 1-leaf stage (10 cm tall) by spraying with the aqueous suspension described above.
Plants, used as controls, are treated with an aqueous solution not containing the active material. After 24 hours, the plants are contaminated by spraying the leaves with an aqueous suspension of Puccinia recondite spores (100.000 spores per ml). The spores are collected from a 10-day-old contaminated wheat and are suspended in water containing 2.5 ml/l of tween 80 10%. The contaminated wheat plants are incubated for 24 hours at 20° C. and at 100% relative humidity, and then for 10 days at 20° C. and at 70% relative humidity. Grading is carried out 10 days after the contamination, in comparison with the control plants.
Under these conditions, good (at least 70%) or total protection is observed at a dose of 500 ppm with the following compounds: […]

| Structure (SMILES) | Eff. % (Phytophthora infestans [1]) [%] | Eff. % (Plasmopara viticola) [%] | Eff. % (Phytophthora infestans [2]) [%] | LogP [3] | Eff. % (Puccinia recondita) [%] |
| --- | --- | --- | --- | --- | --- |
| Cn1c(/C(=N\OCc2cccc(NC(=O)C(C)(C)C)n2)c2ccccc2)noc1=O [Example 148] | 97 | 100 | 100 | 3.48 [a] | – |
| Cn1c(/C(=N\OCc2csc(NC(=O)C(C)(C)C)n2)c2ccccc2)noc1=O [Example 154] | 95 | – | – | 3.42 [a] | – |
| CCCCCCNc1cccc(CO/N=C(/c2ccccc2)c2noc(=O)n2C)n1 [Example 163] | 95 | 96 | – | 2.64 [a] | – |
| COc1ccc(/C(=N/OCc2cccc(NC(=O)C(F)(F)F)n2)c2noc(=O)n2C)cc1 [Example 191] | – | – | 95 | 3.37 [a] | 89 |
| CCCCCC(=O)Nc1nc(CO/N=C(/c2ccccc2)c2noc(=O)n2C)cs1 [Example 198] | 95 | 100 | – | 3.76 [a] | – |
| CCCCOC(=O)Nc1cccc(CO/N=C(/c2cccc(C)c2)c2noc(=O)n2C)n1 [Example 215] | – | – | 98 | 4.36 [a] | 81 |
| CCC(Oc1ccccc1)C(=O)Nc1nc(CO/N=C(/c2ccccc2)c2noc(=O)n2C)cs1 (stereo not drawn) [Example 322] | 75 | – | – | 3.99 [a] | – |
| Cn1c(/C(=N\OCc2cccc(NC(=O)CCc3ccccc3)n2)c2ccc(F)cc2)noc1=O [Example 324] | – | – | 94 | 3.87 [a] | 75 |
| CC(C)CC(=O)Nc1cccc(CO/N=C(/c2ccccc2)c2noc(=O)n2C)n1 [Example 340] | – | 79 | 100 | 3.44 [a] | – |
| C#CCCOC(=O)Nc1cccc(CO/N=C(/c2cccc(C)c2)c2noc(=O)n2C)n1 [Example 343] | – | 95 | 100 | 3.59 [a] | – |
| Cc1cccc(C(=O)Nc2cccc(CO/N=C(/c3ccccc3)c3noc(=O)n3C)n2)c1 [Example 344] | – | 93 | 100 | 3.87 [a] | – |
| Cn1c(/C(=N\OCc2cccc(NC(=O)CCc3ccccc3)n2)c2ccccc2)noc1=O [Example 347] | 92 | 100 | 100 | 3.78 [a] | – |
| Cn1c(/C(=N\OCc2cccc(NC(=O)OC3CCCCC3)n2)c2ccc(F)cc2)noc1=O [Example 351] | – | – | 93 | 4.54 [a] | 75 |
| Cn1c(/C(=N\OCc2cccc(NC(=O)c3ccc(Cl)c(Cl)c3)n2)c2ccccc2)noc1=O [Example 352] | – | 79 | 100 | 4.54 [a] | – |
| CCCCCC(=O)Nc1cccc(CO/N=C(/c2cccc(C)c2)c2noc(=O)n2C)n1 [Example 355] | – | 75 | 100 | 4.24 [a] | – |
| Cn1c(/C(=N\OCc2cccc(NC(=O)CC3CCCC3)n2)c2ccccc2)noc1=O [Example 365] | – | 98 | 100 | 3.92 [a] | – |
| CCCCCC(=O)Nc1cccc(CO/N=C(/c2cccc(F)c2)c2noc(=O)n2C)n1 [Example 376] | – | 93 | 100 | 3.99 [a] | – |
| Cn1c(/C(=N\OCc2csc(NC(=O)Cc3ccccc3)n2)c2ccccc2)noc1=O [Example 378] | – | 95 | 100 | 3.37 [a] | – |
| Cn1c(/C(=N\OCc2cccc(NC(=O)c3cccc(Br)c3)n2)c2ccccc2)noc1=O [Example 380] | – | 95 | 93 | 4.16 [a] | – |
| Cn1c(/C(=N\OCc2cccc(NC(=O)CCC3CCC3)n2)c2ccccc2)noc1=O [Example 389] | – | 100 | 99 | 4.02 [a] | – |
| Cc1ccc(C(=O)Nc2cccc(CO/N=C(/c3ccccc3)c3noc(=O)n3C)n2)cc1C [Example 401] | – | 90 | 99 | 4.16 [a] | – |
| Cn1c(/C(=N\OCc2cccc(NC(=O)CCCCCl)n2)c2ccccc2)noc1=O [Example 404] | – | 87 | 98 | 3.44 [a] | – |
| C#CCCOC(=O)Nc1cccc(CO/N=C(/c2ccccc2)c2noc(=O)n2CC=C)n1 [Example 405] | 95 | 85 | – | 3.61 [a] | – |
